The source of these data is patent US4634706A, “Griseolic acid derivatives, and their use as enzyme inhibitors” (Sankyo Company Limited, priority 1983, dated 1987).

The test system of data set [1] is cerebral blood flow. The data set is described as follows: Improving cerebral blood flow. The data set is classed as in vivo, rabbit. As to conditions: 10 mg/kg. The source says:
The "duration (T1/2)" is the time in minutes required for the increase in cerebral blood flow to reduce by one half.

Data set [2] concerns the target cAMP PDE. The data set is described as follows: Phosphodiesterase (PDE) inhibitory activity, cAMP substrate. The data set is classed as biochemical, rat. As to conditions: for IC50: 0.14 μM 14C-labeled cAMP, pH 8.0, 30° C., 20 minutes, crude enzyme from rat brains, read-out: I50 cAMP PDE. How it is done:
(§1) The test was carried out following essentially the method of A. L. Pichard and Y. U. Chung [Journal of Biological Chemistry, 251, 5726-5737 (1976)]. A crude enzymatic solution derived from rat brains was used as the source of cAMP PDE.
(§2) ^14 C-labeled cAMP was used as the substrate. It was employed in a 0.2M Tris-hydrochloric acid buffer solution (pH 8.0) in an amount sufficient to provide a final concentration of 0.14 μM. "Tris" is tris(hydroxymethyl)aminomethane. The substrate solution was mixed with an appropriate amount of the compound under test dissolved in 2-5 μl of dimethyl sulfoxide and with 20 μl of a snake venom solution and 40 μl of the crude enzyme solution. Sufficient Tris-hydrochloric acid buffer was added to make a total volume of 100 μl. The mixture was allowed to react at 30° C. for 20 minutes. At the end of this time, the reaction mixture was treated with an Amberlite (trade mark) IRP-58 resin and the level of residual adenosine radioactivity in the product was determined.

The target in data set [3] is cGMP PDE. The data set is described as follows: Phosphodiesterase (PDE) inhibitory activity, cGMP substrate. Format: biochemical. The settings on record: cGMP as substrate, crude enzyme from rat brains; read-out: I50 cGMP PDE. On the procedure:
as §1, §2
The experiment was repeated, except that cyclic guanosine monophosphate (cGMP) was employed as the substrate instead of cAMP. The I50 value against cGMP PDE was also calculated.

For data set [4], the system named is erythrocytes. The experiment in a line: Effect on recovery of erythrocyte flexibility reduced by acidosis. The data set is classed as in vivo, rat. The settings on record: 50 mg/kg orally, blood pH 5.1, P < 0.05. How it is done:
Mature male rats were employed in this experiment in groups of five for each test. The compound under test was suspended in an aqueous solution of carboxymethylcellulose and administered orally. Two hours after administration, the rats were anaesthetized with pentobarbital and a 5 ml blood sample was taken from the heart. Its pH was adjusted to 5.1 and the sample was allowed to stand. The fluidity of the erythrocytes was tested by a slightly modified version of the method reported in the Journal of Clinical Pathology, 29, 855-858 (1976). Control animals were treated similarly, except that the carboxymethylcellulose solution contained no active compound. The results are reported as the mean values for each group plus or minus the statistical error and the statistical significance was calculated by comparison with the control group.

In data set [5] the test system is righting reflex and spontaneous locomotive activity. The data set is described as follows: Brain concussive test. Format: in vivo. As to conditions: 10 mg/kg intraperitoneally, 17 mice. On the procedure: The test compound, suspended in an aqueous solution of carboxymethylcellulose, was administered intraperitoneally to mice. After 30 minutes, a 16 g weight was dropped from a height of 50 cm onto the head of each mouse, and the time was measured for each mouse to recover its righting reflex and spontaneous locomotive activity.
A similar experiment was carried out as a control, using the carboxymethylcellulose solution without any active compound.
The results are reported in Table 6 as the mean time (in seconds) plus or minus the statistical error. There were 20 mice in the control group and 17 mice in the group to which the test compound was administered.

The test system of data set [6] is blood viscosity. The data set is described as follows: Improvement in blood viscosity. Also noted: key to blood viscosity, shear rates without significant rise after ligation: for each shear rate where no significant rise in […] was noted (P<0.05) between the pre-ligation and post-ligation values there is printed a single plus sign (+); ++++: no significant difference in viscosity between the pre-ligation and post-ligation values at any of the four shear rates. As to conditions: for minimal effective dose: Rattus norvegicus, read-out: dose at which significant improvement (i.e. stabilisation) in blood viscosity was achieved. The data set is classed as in vivo, male Wistar rats. How it is done:
The test animals were male Wistar rats; they were employed in groups of five for each test. The rats were anaesthetized with pentobartibal and simultaneously the test compound was administered orally at the dose specified in Table 5 in a carboxymethyl cellulose suspension. Promptly, an incision was made in the neck and a 0.5 ml blood sample was collected from the jugular vein. The viscosity of this sample was determined by means of a rotational viscometer.
Thirty minutes after oral administration, the common carotid artery was ligated bilaterally. One hour thereafter (i.e. 90 minutes after oral administration), a further 0.5 ml blood sample was collected from the jugular vein and its viscosity was determined in the same manner.
The mean blood viscosity of each test animal and its standard deviation were calculated for each of the four shear rates (37.5, 75, 150 and 375 s^-1) of the rotational viscometer. The pre-ligation and post-ligationvalues of each group (i.e. the change over a period of 60 minutes) were analysed by the statistical t-test. The results are reported in Table 5 as follows: for each shear rate where no significant rise in […] was noted (P<0.05) between the pre-ligation and post-ligation values there is printed a single plus sign (+). Thus, for example, if there was no significant difference in viscosity between the pre-ligation and post-ligation values at any of the four shear rates, the results will be ++++.

Data set [7] has as its system brain of rats with cerebral ischaemia. The data set is described as follows: Effect on sugar and high energy phosphate metabolism in the brain of rats with cerebral ischaemia. The data set is classed as in vivo, rat. As to conditions: 1 mg/kg or 10 mg/kg intraperitoneal. On the procedure: Cerebral ischaemia was induced in rats and the sugar and high energy phosphate metabolism in the brain was investigated.
Both carotid arteries of the test rats were ligated and, at the same time, the compound under test was administered by intraperitoneal injection. The amounts of sugars and metabolic products thereof (glucose and lactic acid) and high energy phosphate (ATP-adenosine triphosphate) in the brain were determined by the method of Lowry and Passonneau (A flexible system of enzymatic analysis, Academic Press, New York, 1972). When Compound No. 131 was administered at levels of 1 mg/kg or 10 mg/kg, there was observed an increase in glucose levels, a decrease in lactic acid levels and an increase in ATP levels in the rats with cerebral ischaemia.

The subject of data set [8] is anoxia-induced cerebral dysfunction. The data set is described as follows: Promotion of recovery from anoxia-induced cerebral dysfunction (EEG recovery). Format: in vivo, rat. The settings on record: breathing terminated 120 seconds. On the procedure:
In this experiment, the breathing of a rat was terminated for sufficient time for its EEG (electroencephalograph) trace to become flat and the time required for the EEG to show further activity after breathing had restarted was determined.
The rat was immobilized by the administration of pancuronium bromide, and its spontaneous EEG was recorded. After the rat had been roused from anaesthesia, the compound under test suspended in an aqueous solution of carboxymethylcellulose was administered intraperitoneally to the rat. Throughout the experiment, the rat was caused to breathe artificially; 30 minutes after administration of the test compound, artificial breathing was terminated for 120 seconds. After breathing again commenced, the time required for the EEG to recover (the recovery time) was determined.
A control experiment was carried out in which a carboxymethylcellulose suspension alone was administered with no active compound.
The recovery time is reported in the Table in seconds as the mean of the recovery times of all of the animals in the relevant test group plus or minus the statistical error.

Data set [9] concerns rats. The experiment in a line: Toxicity (mortality of male Fisher rats, daily doses for four days). The data set is classed as in vivo, male rats of the Fisher strain. As to conditions: 100 mg/kg daily. On the procedure:
The compounds under test were griseolic acid and Compounds No. 26 and 51 from the list of compounds of the invention set out hereinabove. The test animals were male rats of the Fisher strain. The rats were employed in groups of five for each test.
The compounds under test were administered at single daily doses of 50 mg/kg or 100 mg/kg throughout the four days of the test.

Bounds are passed on as bounds.

Consider `CC(=O)O[C@H](C(=O)O)C1(C(=O)O)C=C2OC(n3cnc4c(N)ncnc43)[C@H](O)C2O1` (stereo partly drawn) [Compound No. 141, 7'(S)-acetoxy-7'-deoxygriseolic acid], for which, in data set [1], the “Duration (T 1/2)” value was over 1 h and the “Increase in cerebral blood flow (Vp), ratio to papaverine 1 mg/kg” value (shortened to “Increase … ratio to papaverine 1 mg/kg”) worked out at 9.2. For the same molecule, the IC50 in data set [2] worked out at 220 nM. Further, the IC50 in data set [3] was found to be 1050 nM.

Turning to `CC(=O)OC1C2OC(C(=O)OC(c3ccccc3)c3ccccc3)(C(OC(C)=O)C(=O)OC(c3ccccc3)c3ccccc3)C=C2OC1n1cnc2c(=O)[nH]cnc21` (stereo not shown) [Compound No. 71, dibenzhydryl O^2',O^7' -diacetyl-6-desamino-6-hydroxygriseolate], in data set [1], the “Duration (T 1/2)” value was over 1 h and the “Increase … ratio to papaverine 1 mg/kg” value stood at 3.0. The “Total number of passing erythrocytes × 10^9” value in data set [4] is given as 3.00 ± 0.16 × 10^9.

`Nc1ncnc2c1ncn2C1OC23OC(C(=O)OC(c4ccccc4)c4ccccc4)C(C(=O)OC(c4ccccc4)c4ccccc4)(OC2C1O)C3Br` (stereo not drawn) [Compound No. 202, dibenzhydryl 4',7'-anhydro-5'α-bromo-4'α-hydroxygriseolate]: the “Recovery time, righting reflex” value in data set [5] came to 20.9 ± 2.9 s. For the same molecule, the “Recovery time, spontaneous locomotive activity” value in [5] (P < 0.05) turned out to be 72.8 ± 15.7 s. The “blood viscosity, shear rates without significant rise after ligation” value in data set [6] (10 mg/kg oral) was “+”. Besides, in data set [6] (oral, in words), the “dose levels at which significant improvement (i.e. stabilisation) in blood viscosity was achieved” value was “all dose levels”.

On to `O=C(Nc1ncnc2c1ncn2C1OC2=CC(C(=O)O)([C@@H](OC(=O)c3ccccc3)C(=O)O)OC2[C@H]1OC(=O)c1ccccc1)c1ccccc1` (stereo partly shown) [Compound No. 131, N^6,O^2',O^7' -tribenzoylgriseolic acid], for which, in [7], the “ATP levels in brain” value is reported as “increase”, the “glucose levels in brain” value is recorded as “increase” and the “lactic acid levels in brain” value is “decrease”. Moreover, the “Total number of passing erythrocytes × 10^9” value in data set [4] is on record as 3.30 ± 0.28 × 10^9. The “blood viscosity, shear rates without significant rise after ligation” value in [6] (30 mg/kg oral) was “+”. In addition, the “blood viscosity, shear rates without significant rise after ligation” value in data set [6] (100 mg/kg oral) is “++++”. Also, in data set [6] (oral), the minimal effective dose was at least 30 mg/kg. In addition, in data set [8] (10 mg/kg intraperitoneally, n=8), the Recovery time is 14.5 ± 1.2 s. This molecule returned a Recovery time in [8] (30 mg/kg intraperitoneally, n=8, P < 0.05) of 13.8 ± 1.3 s.

On to `Nc1ncnc2c1ncn2C1OC2=CC(C(=O)O)([C@@H](O)C(=O)O)OC2[C@H]1O` (stereo partly shown) [Griseolic acid, griseolic acid], for which the “mortality after day 3” value in data set [9] (after day 3) is on record as 3/5. The “mortality for the first two days” value in [9] (first two days) is listed as 0/5. Further, the “mortality at the end of the test” value in data set [9] (four days, male Fisher rats) is 3/5. Besides, the “ability to inhibit cAMP phosphodiesterase” value in data set [2] (in words) is listed as “has the ability to inhibit the activity of cyclic adenosine monophosphate (cAMP) phosphodiesterase (PDE)”.

As for `CCC(=O)Nc1ncnc2c1ncn2C1OC2=CC(C(=O)OC(c3ccccc3)c3ccccc3)(C(OC(=O)CC)C(=O)OC(c3ccccc3)c3ccccc3)OC2C1OC(=O)CC` (stereo not shown) [Compound No. 10, dibenzhydryl N^6,O^2',O^7' -tripropionylgriseolate], the “blood viscosity, shear rates without significant rise after ligation” value in data set [6] (30 mg/kg oral) and in [6] (50 mg/kg oral) was “++++” in each case. Also, the minimal effective dose in data set [6] (oral) was at least 50 mg/kg.

`O=C(O)[C@H](O)C1(C(=O)O)C=C2OC(n3cnc4c(S)ncnc43)[C@H](O)C2O1` (stereo partly shown) [Compound No. 54, 6-desamino-6-mercaptogriseolic acid]: the IC50 amounted to 19000 nM in data set [2] and 9100 nM in data set [3]. Moreover, the minimal effective dose in [6] (oral) was at least 50 mg/kg.

As to `O=C(O)CC1(C(=O)O)C=C2OC(n3cnc4c(=O)[nH]cnc43)C(O)C2O1` (stereo not shown) [Compound No. 138, 6-desamino-7'-deoxy-6-hydroxygriseolic acid], the “Duration (T 1/2)” value in [1] was over 1 h. Moreover, the “Increase … ratio to papaverine 1 mg/kg” value in data set [1] is given as 5.5. The IC50 in [2] amounted to 140 nM; in [3], 50 nM.
